Results from patent US11229635B2, “Method of treating fibrosis” (BCN Biosciences L.L.C., priority 2016, dated 2022).

What was measured:
[1] = test system: cancer cell lines (leukemia, breast, CNS, colon, melanoma, non-small cell lung, ovarian, prostate, renal); assay: NCI cancer cell line growth screen (percent growth over 48 h, sulforhodamine B); format: cell-based
[2] = test system: blood platelets; assay: Platelet count in normal mice; format: in vivo, mouse; conditions: eight days oral or subcutaneous, 75-800 mg/kg/day
Method: Normal mice were treated with BCN057 for eight days by oral administration or subcutaneous injection. Dose groups included 75 mg/kg/day, 200 mg/kg/day, 400 mg/kg/day, 500 mg/kg/day, and 800 mg/kg/day

[3] = test system: plasma cytokines; assay: Mouse Cytokine panel ELISA Array of plasma after irradiation; format: in vivo; conditions: irradiated mice (7 G), 200 mg/kg SC Day 1 to 7, blood Day 8
Method: Mice were irradiated on Day 0. Animals were dosed with drug for 7 consecutive days (Day 1 to 7) at 200 mg/kg SC, with terminal blood collection on Day 8. Plasma from 3 mice was pooled for each condition Y axis represents relative absorbance units.
The plasma was tested with the Mouse Cytokine panel ELISA Array panel—by SIGNOSIS™

[4] = test system: hematopoietic system; assay: Recovery of the hematopoietic system following 6 Gy irradiation; format: in vivo; conditions: C3H mice, s.c. at 24, 48, 72, 96, and 120 hrs
Text: Recovery of the hematopoietic system following 6 Gy irradiation of C3H mice (n=4) with BCN057 treatment (s.c.) at 24, 48, 72, 96, and 120 hrs. RBC- red blood cells (M/uL), HB-hemoglobin (g/dL), and HCT-hematocrit (%). B: recovery of the hematopoietic system following 6 Gy irradiation of C3H mice (n=4) with BCN057 treatment (s.c.) at 24, 48, 72, 96, and 120 hrs. WBC-white blood cells, NE-neutrophils, LY-lymphocytes. C: platelet (PLT) recovery following 6 Gy irradiation of C3H mice (n=4) with BCN057 treatment (s.c.) at 24,48,72,96, and 120 hrs; p<0.05 with a 1-tail, Student t-test.

[5] = Solubility of BCN057 in aqueous formulations; format: physicochemical
Method: Several formulations were developed to solubilize BCN057 in aqueous solution at physiologically compatible pHs. These include 100 mM methanesulfonic acid/10% povidone (PVP); 100 mM MSA/2% benzyl alcohol/2% N-methylpyrrolidone (NMP); and, 100 mM MSA/10% ethanol/1% Poloxamer 188.
Several suitable formulations were developed for intravenous, subcutaneous and oral delivery of therapeutic levels of BCN057. These include 30 wt % Captisol (SBE-beta-CD) and 100 mM MSA at pH 4.1 (adjusted with 1.0 N NaOH).

[6] = test system: bone marrow hematopoietic stem cells (HSCs); assay: Total body irradiation survival (hematopoietic suppression); format: in vivo, C3H/HeN mice; conditions: 7.75 Gy TBI, 30 day; male 50 mg/kg, female 25 mg/kg C3H/HeN mice
Method: FIG. 8A-C: (A) Kaplan Meier Plot of Male C3H/HeN mice 7.75Gy 30 Day TBI (n=30) 50 mg/kg BCN057. (B). Kaplan Meier Plot of Female C3H/HeN mice 7.75Gy 30 Day TBI (n=10) 25 mg/kg BCN057. (C) Cytokine Profile in Plasma Male C3H/HeN mice 7.75Gy TBI Day 8 receiving BCN057.
7.75 Gy radiation is used to ablate bone marrow hematopoietic stem cells (HSCs) in these strains of mice. […] Lethality from bone marrow suppression occurs in the 14-25 day region due to the life cycle of approximately 2 weeks for RBC and inability to replace them without HSCs
7.73 Gy radiation is used to ablate bone marrow HSCs in the C3H strain of mice.

[7] = test system: radiation dermatitis (erythema, edema); assay: Draize scoring of dermal radiation sites, dermal dosing 10 mg/mL Day 0 to 6; format: in vivo; conditions: Avg of Days 1-6 and 8
[8] = test system: canonical Wnt-β catenin signaling; assay: TCF/LEF luciferase reporter assay in HEK293 cells; format: cell-based; conditions: 10 mM, 24 h, positive control
Method: LiCl (10 mM) treatment was used as positive control for luciferase activity. Luciferase activity was determined after 24 h using a Dual-Luciferase® Reporter Assay System (Promega) as per manufacturer's protocol. HEK293 cells containing a FOPFlash construct were used as a negative control.

COc1ccc2cc(-c3nc4ccc(C)cn4c3NCc3ccco3)c(=O)[nH]c2c1 [BCN057, 3-(3((furan-2-ylmethyl)ammo)-6-methylimidazo[1,2-α]pyridine-2-yl)-6-methoxyquinolin-2(1H)-one]
cancer cell growth vs control (no drug) ([1]; 10 uM, 48 h, Leukemia, prostate and kidney cancer): inhibitory
cancer cell growth vs untreated control ([1]; breast cancer, lung carcinoma, prostate, CNS, melanoma, ovarian, renal and colon cancer lines (FIG. 2)): susceptible
platelet production [2]: induces platelet production in a dose dependent fashion
plasma cytokine profile [3]: restores the cytokine profile to similar to that of the control
hematopoietic recovery (RBC, HB, HCT, WBC, NE, LY, PLT) [4]: evidence of improving hematopoietic recovery
solubility ([5]; 30 wt % Captisol (SBE-beta-CD) and 100 mM MSA, up to pH 4.1): excellent solubility
solubility ([5]; addition of 100 mM lactic acid to the MSA mixtures): improved solubility
lethality from bone marrow suppression [6]: sufficient to prevent lethality from bone marrow suppression
Average Draize score Edema [7]: 0
Average Draize score Edema Site 2 [7]: 0
Average Draize score Edema Site 3 [7]: 0.5714
Average Draize score Edema Site 4 [7]: 0
Average Draize score Edema Site 5 [7]: 0.4286
Average Draize score Edema Site 6 [7]: 0
Average Draize score Erythema Site 2 [7]: 0.1429
Average Draize score Erythema Site 3 [7]: 1.286
Average Draize score Erythema Site 4 [7]: 0.1429
Average Draize score Erythema Site 5 [7]: 1.429
Average Draize score Erythema Site 6 [7]: 0.4286

[Cl-].[Li+] [LiCl, reference compound]
luciferase activity [8]: significantly increased luciferase activity
